Series [1] concerns the target T1, Aldehyde dehydrogenase 1A1 (Homo sapiens, UniProt P00352).
T1 sequence (P00352 whole entry): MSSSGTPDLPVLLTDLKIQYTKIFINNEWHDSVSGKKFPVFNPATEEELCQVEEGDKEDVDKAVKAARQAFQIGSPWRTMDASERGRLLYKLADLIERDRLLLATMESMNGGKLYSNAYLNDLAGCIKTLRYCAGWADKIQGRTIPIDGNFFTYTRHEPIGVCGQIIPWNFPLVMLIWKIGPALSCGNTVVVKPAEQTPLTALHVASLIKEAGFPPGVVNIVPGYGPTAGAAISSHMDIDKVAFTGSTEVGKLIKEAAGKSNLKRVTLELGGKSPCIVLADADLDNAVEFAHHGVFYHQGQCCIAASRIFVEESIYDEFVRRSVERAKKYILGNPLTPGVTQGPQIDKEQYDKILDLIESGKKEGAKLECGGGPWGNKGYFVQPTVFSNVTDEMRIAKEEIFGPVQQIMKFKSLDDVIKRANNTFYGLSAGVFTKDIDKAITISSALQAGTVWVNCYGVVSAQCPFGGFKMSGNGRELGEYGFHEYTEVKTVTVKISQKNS
Description: (§1) Inhibition of full length recombinant human ALDH1A1 expressed in Escherichia coli BL21(DE3) assessed as reduction in dehydrogenase activity by measuring NAD(P)H level preincubated for 2 mins followed by addition of propionaldehyde as substrate in presence of NAD+ by spectrophotometric method

Series [2] deals with T2, Aldehyde dehydrogenase, dimeric NADP-preferring (Homo sapiens, UniProt P30838).
T2 sequence (P30838 whole entry): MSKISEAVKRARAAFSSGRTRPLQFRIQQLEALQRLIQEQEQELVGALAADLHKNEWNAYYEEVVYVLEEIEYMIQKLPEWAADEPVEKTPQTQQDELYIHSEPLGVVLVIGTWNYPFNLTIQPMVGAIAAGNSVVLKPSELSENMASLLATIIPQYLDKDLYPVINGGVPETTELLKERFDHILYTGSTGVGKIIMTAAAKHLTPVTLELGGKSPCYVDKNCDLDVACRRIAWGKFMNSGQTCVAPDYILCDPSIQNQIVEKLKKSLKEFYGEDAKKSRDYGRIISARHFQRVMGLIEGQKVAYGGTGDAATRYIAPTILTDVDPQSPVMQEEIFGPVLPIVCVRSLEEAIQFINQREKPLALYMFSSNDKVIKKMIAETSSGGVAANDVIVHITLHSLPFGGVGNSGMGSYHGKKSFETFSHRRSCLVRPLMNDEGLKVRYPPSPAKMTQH
The series can be described thus: Inhibition of full length recombinant human ALDH3A1 expressed in Escherichia coli BL21(DE3) assessed as reduction in dehydrogenase activity by measuring NAD(P)H level preincubated for 2 mins followed by addition of benzaldehyde as substrate in presence of NADP+ by spectrophotometric method.

The target in series [3] is T3, Aldehyde dehydrogenase, mitochondrial (Homo sapiens, UniProt P05091).
T3 sequence (P05091 whole entry): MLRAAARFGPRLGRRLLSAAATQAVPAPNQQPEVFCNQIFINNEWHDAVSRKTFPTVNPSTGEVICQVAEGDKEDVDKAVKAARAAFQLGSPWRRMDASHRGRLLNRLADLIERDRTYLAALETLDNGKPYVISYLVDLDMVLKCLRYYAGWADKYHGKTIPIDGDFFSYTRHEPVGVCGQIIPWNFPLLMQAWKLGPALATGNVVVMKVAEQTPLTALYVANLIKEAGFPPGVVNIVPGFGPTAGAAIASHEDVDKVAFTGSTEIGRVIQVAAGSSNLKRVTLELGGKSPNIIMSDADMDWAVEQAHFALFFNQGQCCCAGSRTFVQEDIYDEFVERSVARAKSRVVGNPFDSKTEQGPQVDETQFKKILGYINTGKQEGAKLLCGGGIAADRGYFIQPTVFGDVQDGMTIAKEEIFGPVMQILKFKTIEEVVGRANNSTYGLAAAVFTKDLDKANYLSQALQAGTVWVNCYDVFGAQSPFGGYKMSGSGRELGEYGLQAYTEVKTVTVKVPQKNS
Description: (§2) Inhibition of full length recombinant human ALDH2 expressed in Escherichia coli assessed as reduction in dehydrogenase activity by measuring NAD(P)H level preincubated for 2 mins followed by addition of propionaldehyde as substrate in presence of NAD+ by spectrophotometric method

The target in series [4] is T4, Retinaldehyde dehydrogenase 3 (Homo sapiens, UniProt P47895).
T4 sequence (P47895 whole entry): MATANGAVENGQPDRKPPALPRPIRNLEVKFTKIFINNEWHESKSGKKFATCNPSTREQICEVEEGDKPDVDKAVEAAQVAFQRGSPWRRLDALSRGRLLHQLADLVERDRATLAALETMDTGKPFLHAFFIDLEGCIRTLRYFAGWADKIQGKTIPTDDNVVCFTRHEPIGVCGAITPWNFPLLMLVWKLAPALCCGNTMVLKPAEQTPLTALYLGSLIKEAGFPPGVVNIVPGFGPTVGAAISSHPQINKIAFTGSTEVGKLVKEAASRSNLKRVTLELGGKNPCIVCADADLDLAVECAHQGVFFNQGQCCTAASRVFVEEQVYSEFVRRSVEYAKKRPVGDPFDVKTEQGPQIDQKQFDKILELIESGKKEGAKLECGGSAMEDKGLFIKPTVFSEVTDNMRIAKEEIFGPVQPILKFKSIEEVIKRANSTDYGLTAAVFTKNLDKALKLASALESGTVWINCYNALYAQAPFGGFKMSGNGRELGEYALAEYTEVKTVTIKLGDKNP
Description: (§3) Inhibition of full length recombinant human ALDH1A3 expressed in Escherichia coli BL21(DE3) assessed as reduction in dehydrogenase activity by measuring NAD(P)H level preincubated for 2 mins followed by addition of propionaldehyde as substrate in presence of NAD+ by spectrophotometric method

In series [5] the target is T1, Aldehyde dehydrogenase 1A1. This is another data set of the same source.
Description: Non-competitive inhibition of full length recombinant human ALDH1A1 expressed in Escherichia coli BL21(DE3) assessed as reduction in dehydrogenase activity by measuring NAD(P)H level using varying levels propionaldehyde in presence of NAD+ by Lineweaver-Burk plot analysis
Series [6] has as its target T5, Aldehyde dehydrogenase, dimeric NADP-preferring (Homo sapiens) (UniProt P30838).
T5 sequence (whole entry): T2 sequence (P30838 whole entry)
Kind of series: Inhibition of full length recombinant human ALDH3A1 expressed in Escherichia coli BL21(DE3) assessed as remaining dehydrogenase activity by measuring NAD(P)H level at 10 uM preincubated for 2 mins followed by addition of propionaldehyde as substrate in presence of NAD+ by spectrophotometric method.

For another series, the target named is T6, Retinal dehydrogenase 2 (Homo sapiens, UniProt O94788).
T6 sequence (O94788 whole entry): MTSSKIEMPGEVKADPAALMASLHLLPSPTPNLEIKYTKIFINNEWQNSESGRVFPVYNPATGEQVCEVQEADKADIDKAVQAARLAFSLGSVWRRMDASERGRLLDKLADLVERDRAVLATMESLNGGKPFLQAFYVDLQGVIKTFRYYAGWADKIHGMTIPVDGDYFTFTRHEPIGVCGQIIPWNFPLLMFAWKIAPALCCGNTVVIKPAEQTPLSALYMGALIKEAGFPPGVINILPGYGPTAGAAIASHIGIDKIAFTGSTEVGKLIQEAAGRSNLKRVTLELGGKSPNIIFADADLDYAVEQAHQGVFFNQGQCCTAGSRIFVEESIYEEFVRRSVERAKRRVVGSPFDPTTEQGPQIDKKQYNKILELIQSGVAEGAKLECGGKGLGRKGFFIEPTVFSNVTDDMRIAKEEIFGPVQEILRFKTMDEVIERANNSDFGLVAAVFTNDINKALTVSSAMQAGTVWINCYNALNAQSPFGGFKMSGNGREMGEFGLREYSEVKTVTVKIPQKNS

The target in series [7] is T1, Aldehyde dehydrogenase 1A1. The source holds these as a separate data set.
Series [8] addresses T7, Aldehyde dehydrogenase 1A1 (Homo sapiens) (UniProt P00352).
T7 sequence (whole entry): T1 sequence (P00352 whole entry)
Kind of series: Inhibition of full length recombinant human ALDH1A1 expressed in Escherichia coli BL21(DE3) assessed as remaining dehydrogenase activity by measuring NAD(P)H level at 10 uM preincubated for 2 mins followed by addition of propionaldehyde as substrate in presence of NAD+ by spectrophotometric method.

Series [9] deals with T8, Aldehyde dehydrogenase, mitochondrial (Homo sapiens) (UniProt P05091).
T8 sequence (whole entry): T3 sequence (P05091 whole entry)
The series can be described thus: Inhibition of full length recombinant human ALDH2 expressed in Escherichia coli assessed as remaining dehydrogenase activity by measuring NAD(P)H level at 10 uM preincubated for 2 mins followed by addition of propionaldehyde as substrate in presence of NAD+ by spectrophotometric method.

The nature of series [10]: Lipophilicity, log P of the compound. It is filed as physicochemical. The settings on record: octanol/water.
Series [11] addresses T9, Aldehyde dehydrogenase X, mitochondrial (Homo sapiens, UniProt P30837).
T9 sequence (P30837 whole entry): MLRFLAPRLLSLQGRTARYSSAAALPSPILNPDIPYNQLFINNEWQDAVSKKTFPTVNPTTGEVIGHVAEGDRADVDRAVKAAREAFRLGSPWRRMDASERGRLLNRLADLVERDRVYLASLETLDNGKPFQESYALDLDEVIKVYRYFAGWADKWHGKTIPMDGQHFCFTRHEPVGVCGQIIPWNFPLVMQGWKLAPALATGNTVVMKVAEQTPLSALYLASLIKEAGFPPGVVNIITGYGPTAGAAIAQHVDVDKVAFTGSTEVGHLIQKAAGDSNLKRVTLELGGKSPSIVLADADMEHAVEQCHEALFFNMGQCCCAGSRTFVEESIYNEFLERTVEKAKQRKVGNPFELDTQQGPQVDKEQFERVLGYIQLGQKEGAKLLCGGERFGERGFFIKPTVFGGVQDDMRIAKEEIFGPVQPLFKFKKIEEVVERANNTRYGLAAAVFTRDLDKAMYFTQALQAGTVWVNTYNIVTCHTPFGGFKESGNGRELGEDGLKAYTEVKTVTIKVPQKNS
Description: (§4) Inhibition of full length recombinant human ALDH1B1 expressed in Escherichia coli TunerDE3 assessed as reduction in dehydrogenase activity by measuring NAD(P)H level preincubated for 2 mins followed by addition of propionaldehyde as substrate in presence of NAD+ by spectrophotometric method

Series [12] concerns the target T1, Aldehyde dehydrogenase 1A1. This is another data set of the same source.
Description: as §1
The target of series [13] is T3, Aldehyde dehydrogenase, mitochondrial. The source holds these as a separate data set.
Description: as §2
Series [14] deals with T5, Aldehyde dehydrogenase, dimeric NADP-preferring (Homo sapiens). Kind of series: Inhibition of full length recombinant human ALDH3A1 expressed in Escherichia coli BL21(DE3) assessed as reduction in dehydrogenase activity by measuring NAD(P)H level preincubated for 2 mins followed by addition of benzaldehyde as substrate in presence of NADP+ by spectrophotometric method relative to control.

For series [15], the target named is T4, Retinaldehyde dehydrogenase 3. The source holds these as a separate data set.
Description: as §3
The target in series [16] is T9, Aldehyde dehydrogenase X, mitochondrial. The source holds these as a separate data set.
Description: as §4
In series [17] the target is T3, Aldehyde dehydrogenase, mitochondrial. The series can be described thus: Mixed-type non-competitive inhibition of full length recombinant human ALDH2 expressed in Escherichia coli assessed as reduction in dehydrogenase activity using propionaldehyde as substrate in presence of varying levels NAD+ by Lineweaver-Burk plot analysis.
The target of series [18] is T10, Cytosolic 10-formyltetrahydrofolate dehydrogenase (Rattus norvegicus, UniProt P28037).
T10 sequence (P28037 whole entry): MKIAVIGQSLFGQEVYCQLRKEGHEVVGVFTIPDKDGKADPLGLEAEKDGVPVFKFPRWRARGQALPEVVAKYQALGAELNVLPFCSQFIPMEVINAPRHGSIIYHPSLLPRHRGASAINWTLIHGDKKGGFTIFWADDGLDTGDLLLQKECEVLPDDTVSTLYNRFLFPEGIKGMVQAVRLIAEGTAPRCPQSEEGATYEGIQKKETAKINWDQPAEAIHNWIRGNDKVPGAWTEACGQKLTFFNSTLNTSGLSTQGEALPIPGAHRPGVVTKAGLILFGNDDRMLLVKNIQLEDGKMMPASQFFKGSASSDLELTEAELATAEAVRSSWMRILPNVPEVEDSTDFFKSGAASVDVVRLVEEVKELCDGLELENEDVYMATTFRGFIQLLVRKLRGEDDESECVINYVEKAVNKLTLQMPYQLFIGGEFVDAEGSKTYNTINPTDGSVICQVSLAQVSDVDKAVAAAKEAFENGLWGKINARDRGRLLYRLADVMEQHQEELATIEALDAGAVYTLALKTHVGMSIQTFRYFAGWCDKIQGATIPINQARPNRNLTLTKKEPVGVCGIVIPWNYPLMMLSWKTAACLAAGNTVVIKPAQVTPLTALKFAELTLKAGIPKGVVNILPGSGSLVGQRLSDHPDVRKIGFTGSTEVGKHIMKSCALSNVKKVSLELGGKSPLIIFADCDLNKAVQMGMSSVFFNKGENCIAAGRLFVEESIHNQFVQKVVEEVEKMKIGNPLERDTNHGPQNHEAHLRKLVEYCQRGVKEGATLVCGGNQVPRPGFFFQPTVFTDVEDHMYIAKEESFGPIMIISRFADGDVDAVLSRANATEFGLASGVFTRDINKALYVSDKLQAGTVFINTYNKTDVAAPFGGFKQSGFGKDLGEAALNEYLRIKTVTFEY
The series can be described thus: Inhibition of rat ALDH1L1 assessed as reduction in dehydrogenase activity by measuring NAD(P)H level preincubated for 2 mins followed by addition of propionaldehyde as substrate in presence of NAD+ by spectrophotometric method.

Where only a bound is given, the exact number is not on record here.

Description for Retinal dehydrogenase 2: Inhibition of full length recombinant human ALDH1A2 expressed in Escherichia coli BL21(DE3) assessed as reduction in dehydrogenase activity by measuring NAD(P)H level preincubated for 2 mins followed by addition of propionaldehyde as substrate in presence of NAD+ by spectrophotometric method

By IC50 is commonly meant the concentration needed to halve the response being measured. By Ki is commonly meant the equilibrium dissociation constant of an inhibitor or competing ligand from its target. The logP is a log measure of how a compound divides between an organic and an aqueous phase. Read a high logP as higher lipophilicity. In the case of `CCN(CC)c1ccc2c(C)cc(=O)oc2c1`, the IC50 in [1] is 0.76 µM; in series [2] it was “Not Active”; in [3], “Not Active”; in [4] it was “Not Active”; against Retinal dehydrogenase 2, more than 10 µM; in series [11], “Not Active”. Besides, the values for the Ki in [5] and in [7] were 1.2 µM and 0.87 µM, respectively. Further, the Activity in [6] was found to be 109%; in series [8] it was 14.3%; in [9], 71.7%. Besides, the logP in series [10] is 3.63.

Turning to `Cc1cc(=O)oc2cc3c(cc12)CCC(=O)O3`, the IC50 result was “Not Active” in series [12], 5.4 µM in [2] (read-out: IC50) and 0.47 µM in [13]. Also, the Activity in [6] was determined as 53.6%; in series [8], 65.2%; in [9] it was 25.5%. Further, the Imax in series [14] lay within 50 to 60%. This compound had a logP in [10] of 2.11.

Turning to `Cc1c(Cc2ccccc2)c(=O)oc2cc(OS(C)(=O)=O)ccc12`, the IC50 was 10 µM in series [15]; 2.8 µM in [1]; “Not Active” in series [2]; “Not Active” in series [3]; 11 µM against Retinal dehydrogenase 2; 13 µM in series [16]. In addition, the Activity in series [6] came out at 86.9%; in [8] it was 24.6%; in series [9], 99.7%. For the same compound, the logP in [10] stood at 3.44.

As for `Cc1cc(=O)oc2cc(OCC#N)ccc12`, the values for the inhibition constant (Ki) in series [17] and in [5] were 5.6 µM and 6.9 µM, respectively. Moreover, the results for the Activity in series [6], in [8] and in series [9] were 20.4%, 35.7% and 41.3%, respectively. Further, the log partition coefficient (logP) in [10] turned out to be 1.22.

Turning to `O=c1c(-c2ccc(O)cc2)coc2cc(O[C@@H]3O[C@H](CO)[C@@H](O)[C@H](O)[C@H]3O)ccc12` [DAIDZIN], the 50% inhibitory concentration (IC50) was more than 200 µM in series [15]; more than 200 µM in series [1]; “Not Active” in series [2]; 4.5 µM against Retinal dehydrogenase 2; 5.1 µM in series [16]; “Not Active” in series [18].

For the origin of these results see ChEMBL document CHEMBL4007427, “Inhibition of the Aldehyde Dehydrogenase 1/2 Family by Psoralen and Coumarin Derivatives” (J Med Chem, 2017).
